Results taken from US12370235B2, “Synthetic, non-natural antimicrobial peptides inspired by Staphylococcus auricularis delta toxin” (University of Saskatchewan, priority 2021, dated 2025).
Ends that are not written are not given here.

Legend:
[1] = test system: Candida duobushaemulonii AR 391; assay: MIC, YPD broth, CDC and FDA AR Candida isolate panel; format: cell-based; details: Table 9 below the line: only 200 or 100 μg/mL tested; values reported as 100 are ≤100 μg/mL
In short: (§1)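 Overnight standing culture at 37° C in the presence of peptide serially diluted by halves. Starting cell density corresponded to an optical density of […].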

Kodamae ohmeri AR 396 = assay: as above; format: cell-based; details: Table 9 below the line: only 200 or 100 μg/mL tested; values reported as 100 are ≤100 μg/mL
In short: as §1

Candida krusei AR 397 = assay: as above; format: cell-based; details: Table 9 below the line: only 200 or 100 μg/mL tested; values reported as 100 are ≤100 μg/mL
In short: as §1

[2] = test system: Candida haemulonii AR 395; assay: as above; format: cell-based; details: Table 9 below the line: only 200 or 100 μg/mL tested; values reported as 100 are ≤100 μg/mL
In short: as §1

[3] = test system: Saccharomyces cerevisiae AR 399; assay: as above; format: cell-based; details: Table 9 below the line: only 200 or 100 μg/mL tested; values reported as 100 are ≤100 μg/mL
In short: as §1

[4] = test system: Saccharomyces cerevisiae AR 400; assay: as above; format: cell-based; details: Table 9 below the line: only 200 or 100 μg/mL tested; values reported as 100 are ≤100 μg/mL
In short: as §1

[5] = test system: Candida haemulonii AR 393; assay: as above; format: cell-based; details: Table 9 below the line: only 200 or 100 μg/mL tested; values reported as 100 are ≤100 μg/mL
In short: as §1

[6] = test system: Candida duobushaemulonii AR 394; assay: as above; format: cell-based; details: Table 9 below the line: only 200 or 100 μg/mL tested; values reported as 100 are ≤100 μg/mL
In short: as §1

[7] = test system: Candida lusitaniae AR 398; assay: as above; format: cell-based; details: Table 9 below the line: only 200 or 100 μg/mL tested; values reported as 100 are ≤100 μg/mL
In short: as §1

[8] = test system: Candida duobushaemulonii AR 392; assay: as above; format: cell-based; details: Table 9 below the line: only 200 or 100 μg/mL tested; values reported as 100 are ≤100 μg/mL
In short: as §1

[9] = test system: Mannheimia haemolytica ATCC 33393; assay: MIC, broth dilution; format: cell-based; details: Table 11; highest concentration 25 μg/mL
In short: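 Peptides (95% purity) in 2-fold dilution series were mixed with M. haemolytica diluted to OD 6×10^−4 in cation-adjusted Mueller Hinton broth and incubated standing overnight at 37 °C. MIC was the lowest concentration with no visible growth.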

[10] = test system: S. aureus ATCC BAA-2094 (MRSA SCCmec type V); assay: MIC, broth dilution; format: cell-based, Staphylococcus aureus; details: Table 5; STIP3 variants, highest concentration 100 μg/mL
In short: (§2)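 Peptides (95% purity) were serially diluted 2-fold and mixed with bacteria diluted to OD 6×10^−4 in cation-adjusted Mueller Hinton broth. Standing cultures were incubated overnight at 37° C. MIC was the lowest peptide concentration with no observed growth.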

[11] = test system: S. aureus ATCC 33592 (MRSA SCCmec type III); assay: MIC, broth dilution; format: cell-based, Staphylococcus aureus; details: Table 5; STIP3 variants, highest concentration 100 μg/mL
In short: as §2

[12] = test system: S. aureus ATCC BAA-42 (MRSA SCCmec type VI); assay: MIC, broth dilution; format: cell-based, Staphylococcus aureus; details: Table 5; STIP3 variants, highest concentration 100 μg/mL
In short: as §2

S. aureus ATCC 29213 = assay: MIC, broth dilution; format: cell-based, Staphylococcus aureus; details: Table 5; STIP3 variants, highest concentration 100 μg/mL
In short: as §2

[13] = test system: S. aureus ATCC BAA-41 (MRSA SCCmec type II); assay: MIC, broth dilution; format: cell-based, Staphylococcus aureus; details: Table 5; STIP3 variants, highest concentration 100 μg/mL
In short: as §2

[14] = test system: S. aureus ATCC BAA-44 (MRSA SCCmec type I); assay: MIC, broth dilution; format: cell-based, Staphylococcus aureus; details: Table 5; STIP3 variants, highest concentration 100 μg/mL
In short: as §2

[15] = test system: S. aureus ATCC BAA-1683 (MRSA SCCmec type IV); assay: MIC, broth dilution; format: cell-based, Staphylococcus aureus; details: Table 5; STIP3 variants, highest concentration 100 μg/mL
In short: as §2

[16] = test system: S. aureus ATCC BAA-2313 (MRSA SCCmec type XI); assay: MIC, broth dilution; format: cell-based, Staphylococcus aureus; details: Table 5; STIP3 variants, highest concentration 100 μg/mL
In short: as §2

C. albicans Y537 = assay: MIC, YPD broth; format: cell-based, Candida albicans; details: Table 8
C. albicans MYA-2876 = assay: MIC, YPD broth; format: cell-based, Candida albicans; details: Table 8
In short: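 Minimum inhibitory concentrations against Candida albicans were determined in YPD broth (10 g/L yeast extract, 20 g/L peptone, 20 g/L dextrose) using peptides of 95% purity. A 180 μl volume of diluted yeast was combined with 20 μl of peptide in a 2-fold dilution series in 96-well plates, with sterile water as control, then incubated standing overnight at 37° C.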

| Substance | MIC (μg/mL) Candida duobushaemulonii AR 391 [1] | MIC (μg/mL) Kodamae ohmeri AR 396 (Kodamae ohmeri AR 396) | MIC (μg/mL) Candida krusei AR 397 (Candida krusei AR 397) | MIC (μg/mL) Saccharomyces cerevisiae AR 399 [3] | MIC (μg/mL) Saccharomyces cerevisiae AR 400 [4] | MIC (μg/mL) Candida haemulonii AR 393 [5] | MIC (μg/mL) Candida duobushaemulonii AR 394 [6] | MIC (μg/mL) Candida lusitaniae AR 398 [7] | MIC (μg/mL) Candida duobushaemulonii AR 392 [8] | MIC (μg/mL) M. haemolytica [9] | MIC S. aureus ATCC BAA 2094 (V) [10] | MIC S. aureus ATCC 33592 (III) [11] | MIC S. aureus ATCC BAA 42 (VI) [12] | MIC S. aureus ATCC 29213 (S. aureus ATCC 29213) | MIC S. aureus ATCC BAA 41 (II) [13] | MIC S. aureus ATCC BAA 44 (I) [14] | MIC S. aureus ATCC BAA 1683 (IV) [15] | MIC S. aureus ATCC BAA 2313 (XI) [16] | MIC C. albicans Y537 (C. albicans Y537) | MIC C. albicans MYA-2876 (C. albicans MYA-2876) | also measured |
| --- | --- | --- | --- | --- | --- | --- | --- | --- | --- | --- | --- | --- | --- | --- | --- | --- | --- | --- | --- | --- | --- |
| TVKKLVKWILKTVKKFA [STIP3-18, TVKKLVKWILKTVKKFA] | ≤ 100 µg/mL | > (values below the line were determined using two concentrations of peptide 200 or 100 μg/mL) | ≤ 100 µg/mL | ≤ 100 µg/mL | ≤ 100 µg/mL | > (values below the line were determined using two concentrations of peptide 200 or 100 μg/mL) | ≤ 100 µg/mL | ≤ 100 µg/mL | ≤ 100 µg/mL | 6.25 µg/mL | 100 µg/mL | 100 µg/mL | > (no inhibition was observed at the highest concentration of peptide tested: 100 μg/mL for the STIP3 variants) | 100 µg/mL | 100 µg/mL | 100 µg/mL | > (no inhibition was observed at the highest concentration of peptide tested: 100 μg/mL for the STIP3 variants) | > (no inhibition was observed at the highest concentration of peptide tested: 100 μg/mL for the STIP3 variants) | > (> symbol indicates that no inhibition was observed at the highest concentration of peptide tested: 100 μg/mL) | 50 µg/mL | MIC (μg/mL) Candida haemulonii AR 395 [2]: > (values below the line were determined using two concentrations of peptide 200 or 100 μg/mL) |
| TVRALVKWILRTVAKFA [STIP3-20, TVRALVKWILRTVAKFA] | > (values below the line were determined using two concentrations of peptide 200 or 100 μg/mL) | > (values below the line were determined using two concentrations of peptide 200 or 100 μg/mL) | > (values below the line were determined using two concentrations of peptide 200 or 100 μg/mL) | > (values below the line were determined using two concentrations of peptide 200 or 100 μg/mL) | 200 µg/mL | > (values below the line were determined using two concentrations of peptide 200 or 100 μg/mL) | > (values below the line were determined using two concentrations of peptide 200 or 100 μg/mL) | > (values below the line were determined using two concentrations of peptide 200 or 100 μg/mL) | > (values below the line were determined using two concentrations of peptide 200 or 100 μg/mL) | 25 µg/mL | 25 µg/mL | 25 µg/mL | 25 µg/mL | 25 µg/mL | 12.5 µg/mL | 25 µg/mL | 25 µg/mL | 50 µg/mL | > (> symbol indicates that no inhibition was observed at the highest concentration of peptide tested: 100 μg/mL) | > (> symbol indicates that no inhibition was observed at the highest concentration of peptide tested: 100 μg/mL) | MIC (μg/mL) Candida haemulonii AR 395 [2]: > (values below the line were determined using two concentrations of peptide 200 or 100 μg/mL) |
| TVGGLVKWILDTVKKFA-NH2 [STIP3-27, TVGGLVKWILDTVKKFA-NH2] | > (values below the line were determined using two concentrations of peptide 200 or 100 μg/mL) | ≤ 100 µg/mL | ≤ 100 µg/mL | ≤ 100 µg/mL | ≤ 100 µg/mL | > (values below the line were determined using two concentrations of peptide 200 or 100 μg/mL) | > (values below the line were determined using two concentrations of peptide 200 or 100 μg/mL) | ≤ 100 µg/mL | > (values below the line were determined using two concentrations of peptide 200 or 100 μg/mL) | 25 µg/mL | 25 µg/mL | 50 µg/mL | 25 µg/mL | 50 µg/mL | 25 µg/mL | 25 µg/mL | 25 µg/mL | 50 µg/mL | 50 µg/mL | 25 µg/mL | MIC (μg/mL) Candida haemulonii AR 395 [2]: > (values below the line were determined using two concentrations of peptide 200 or 100 μg/mL) |
| TVKALVKWILKTVAKFW-NH2 [STIP3-31, TVKALVKWILKTVAKFW-NH2] | > (values below the line were determined using two concentrations of peptide 200 or 100 μg/mL) | > (values below the line were determined using two concentrations of peptide 200 or 100 μg/mL) | > (values below the line were determined using two concentrations of peptide 200 or 100 μg/mL) | > (values below the line were determined using two concentrations of peptide 200 or 100 μg/mL) | > (values below the line were determined using two concentrations of peptide 200 or 100 μg/mL) | > (values below the line were determined using two concentrations of peptide 200 or 100 μg/mL) | > (values below the line were determined using two concentrations of peptide 200 or 100 μg/mL) | > (values below the line were determined using two concentrations of peptide 200 or 100 μg/mL) | > (values below the line were determined using two concentrations of peptide 200 or 100 μg/mL) | 6.25 µg/mL | 25 µg/mL | 25 µg/mL | 50 µg/mL | 25 µg/mL | 25 µg/mL | 25 µg/mL | 25 µg/mL | 25 µg/mL | > (> symbol indicates that no inhibition was observed at the highest concentration of peptide tested: 100 μg/mL) | > (> symbol indicates that no inhibition was observed at the highest concentration of peptide tested: 100 μg/mL) |  |
